Literature values in US20070154533A1, “Method of increasing testosterone and related steriod concentrations in women” (priority 2005, published 2007).
Like-named read-outs stand apart in the source and are kept apart here.

Experiments:
albumin = albumin (Homo sapiens, UniProt P02768); settings: in women
[1] = patch delivering 150 ug/day, HIV-infected women, over 12 weeks
[2] = circulating testosterone
[3] = for Mean (±SD) serum free testosterone concentration: transdermal patch, 12 weeks, oophorectomized women on conjugated equine estrogens
[4] = target: T1, sex hormone binding globulin (Homo sapiens, UniProt P04278); settings: in women
T1 sequence (P04278 30-402): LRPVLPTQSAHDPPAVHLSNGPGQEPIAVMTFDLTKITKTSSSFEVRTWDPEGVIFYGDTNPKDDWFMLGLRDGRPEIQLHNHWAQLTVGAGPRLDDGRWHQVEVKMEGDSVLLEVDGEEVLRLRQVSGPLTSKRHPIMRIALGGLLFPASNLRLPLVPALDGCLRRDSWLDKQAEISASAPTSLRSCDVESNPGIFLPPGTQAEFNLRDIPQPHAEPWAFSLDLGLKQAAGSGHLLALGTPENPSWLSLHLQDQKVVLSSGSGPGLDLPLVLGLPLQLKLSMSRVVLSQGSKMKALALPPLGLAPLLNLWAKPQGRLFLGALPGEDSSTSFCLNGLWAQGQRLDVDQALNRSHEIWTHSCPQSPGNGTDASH

Chain of albumin (P02768 25-609): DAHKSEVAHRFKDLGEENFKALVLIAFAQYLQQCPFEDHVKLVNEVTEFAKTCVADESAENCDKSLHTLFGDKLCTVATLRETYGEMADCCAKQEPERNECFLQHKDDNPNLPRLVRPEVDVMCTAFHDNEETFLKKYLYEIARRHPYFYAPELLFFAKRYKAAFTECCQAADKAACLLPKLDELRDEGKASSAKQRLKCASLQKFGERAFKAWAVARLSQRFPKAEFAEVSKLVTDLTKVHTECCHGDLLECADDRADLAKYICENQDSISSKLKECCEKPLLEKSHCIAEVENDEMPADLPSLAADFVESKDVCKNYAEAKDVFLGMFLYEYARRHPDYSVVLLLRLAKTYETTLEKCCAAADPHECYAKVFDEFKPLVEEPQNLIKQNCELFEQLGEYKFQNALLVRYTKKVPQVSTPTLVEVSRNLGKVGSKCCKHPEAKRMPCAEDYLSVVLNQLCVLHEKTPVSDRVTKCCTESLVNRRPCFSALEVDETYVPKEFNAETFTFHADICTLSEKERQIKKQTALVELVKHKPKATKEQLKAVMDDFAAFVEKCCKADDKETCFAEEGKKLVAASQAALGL

C[C@]12CC[C@H]3[C@@H](CCC4=CC(=O)CC[C@@]43C)[C@@H]1CC[C@@H]2O [Testosterone, testosterone]
Bound weakly to albumin (albumin): 33% | Increase in body weight [1]: 4% | Bound to protein in the blood [2]: 98% | Scores on the telephone-based diary ([3]; higher dose): did not increase significantly | Psychological Well-Being Index positive-well-being, depressed-mood, and composite scores ([3]; higher dose vs placebo): improved at the higher dose | Percentages of women who had sexual fantasies, masturbated, or engaged in sexual intercourse at least once a week ([3]; higher dose, vs base line): increased two to three times from base line | Brief Index of Sexual Functioning for Women scores ([3]; higher testosterone dose (300 μg per day), P=0.03 vs placebo): further increases in scores for frequency of sexual activity and pleasure-orgasm | Mean (±SD) serum free testosterone concentration ([3]; 160 μg of testosterone per day): 3.9 ± 2.4 pg/mL | Mean (±SD) serum free testosterone concentration ([3]; 300 μg of testosterone per day): 4.9 ± 4.8 pg/mL | Binding to sex hormone binding globulin [4]: approximately 65%
